According to patent US10329289B2, “6,7-dihydro-5H-pyrrolo[3,4-B]pyridin-5-one allosteric modulators of the M4 muscarinic acetylcholine receptor” (Merck Sharp & Dohme Corp., priority 2015, dated 2019):

These compounds were tested against T1, human M4 muscarinic acetylcholine receptor (Homo sapiens, UniProt P08173) (assay: human FLIPR-based M4 PAM assay (Ca2+ mobilization, CHO-K1 cells with human M4 receptor and Gαqi5)). Details: acetylcholine at 20% of maximum response, read-out: M4 PAM IP.
T1 construct: expressed in transfected cells; host or cells: CHO-K1
T1 sequence (P08173 1-479): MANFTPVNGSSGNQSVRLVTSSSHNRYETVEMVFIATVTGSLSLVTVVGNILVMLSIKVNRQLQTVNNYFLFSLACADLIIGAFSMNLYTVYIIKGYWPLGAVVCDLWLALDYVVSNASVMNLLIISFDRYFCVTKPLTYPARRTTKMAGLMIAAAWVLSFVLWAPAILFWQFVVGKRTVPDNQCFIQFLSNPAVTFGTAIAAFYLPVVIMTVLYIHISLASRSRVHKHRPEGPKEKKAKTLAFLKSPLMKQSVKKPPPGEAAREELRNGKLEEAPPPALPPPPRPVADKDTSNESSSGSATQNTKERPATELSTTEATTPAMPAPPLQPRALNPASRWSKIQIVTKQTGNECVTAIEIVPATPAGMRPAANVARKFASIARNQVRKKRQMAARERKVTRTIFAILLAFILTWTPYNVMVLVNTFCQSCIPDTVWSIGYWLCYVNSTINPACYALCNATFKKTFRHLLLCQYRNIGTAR
Assay type: cell-based
In short: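 CHO-K1 cells stably expressing human M4 and chimeric Gαqi5 were dye-loaded ~1 h at 37 °C and read for Ca2+ fluorescence. Compound followed by acetylcholine at an EC20 (sometimes an EC70 third addition); inflection point from a 4-parameter logistic fit.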
In the case of `Cc1cc2c(nc1N1CCC(OCC(C)(C)C)CC1)CNC2=O` [Example 182, 3-methyl-2-(4-(neopentyloxy)piperidin-1-yl)-6,7-dihydro-5H-pyrrolo[3,4-b]pyridin-5-one], the EC50 is reported as 3790 nM. `Cc1cc2c(nc1N1CCC(Oc3ccc4nccn4c3)CC1)CNC2=O` [Example 182A, 2-(4-(imidazo[1,2-a]pyridin-6-yloxy)piperidin-1-yl)-3-methyl-6,7-dihydro-5H-pyrrolo[3,4-b]pyridin-5-one] was tested, and the EC50 was 473 nM. `Cc1cc2c(nc1N1CCC(OCc3ncco3)CC1)CNC2=O` [Example 183, 3-methyl-2-(4-(oxazol-2-ylmethoxy)piperidin-1-yl)-6,7-dihydro-5H-pyrrolo[3,4-b]pyridin-5-one] gave an EC50 of 4780 nM. For `Cc1cc2c(nc1N1CCC(OCC3(C)CCC3)CC1)CNC2=O` [Example 184, 3-methyl-2-(4-((1-methylcyclobutyl)meth-oxy)piperidin-1-yl)-6,7-dihydro-5H-pyrrolo[3,4-b]pyridin-5-one], the EC50 was 246 nM. With `CCC1(COC2CCN(c3nc4c(cc3C)C(=O)NC4)CC2)CC1` [Example 186, 2-(4-((1-ethylcyclopropyl)meth-oxy)piperidin-1-yl)-3-methyl-6,7-dihydro-5H-pyrrolo[3,4-b]pyridin-5-one] the EC50 was 77 nM. Work on `Cc1cc2c(nc1N1CCC(OCC34CC(C3)C4)CC1)CNC2=O` [Example 187, 2-(4-(bicyclo[1.1.1]pentan-1-ylmethoxy)piperidin-1-yl)-3-methyl-6,7-dihydro-5H-pyrrolo[3,4-b]pyridin-5-one] yielded an EC50 of 223 nM. Work on `CCc1cc2c(nc1N1CCC(OCC3(C)CC3(F)F)CC1)CNC2=O` (stereo not drawn) [Example 187A, 2-(4-((2,2-difluoro-1-methylcyclopropyl)meth-oxy)piperidin-1-yl)-3-ethyl-6,7-dihydro-5H-pyrrolo[3,4-b]pyridin-5-one] yielded an EC50 of 295 nM. `Cc1cc2c(nc1N1CCC(OCC(C)C(F)(F)F)CC1)CNC2=O` (stereo not drawn) [Example 188, 3-methyl-2-(4-(3,3,3-trifluoro-2-methylpropoxy)piperidin-1-yl)-6,7-dihydro-5H-pyrrolo[3,4-b]pyridin-5-one] was tested, and the EC50 was 1220 nM. `Cc1cc2c(nc1N1CCC(OCC3(C(F)(F)F)CC3)CC1)CNC2=O` [Example 189, 3-methyl-2-(4-((1-(trifluoromethyl)cyclo-propyl)methoxy)piperidin-1-yl)-6,7-dihydro-5H-pyrrolo[3,4-b]pyridin-5-one] was tested, and the EC50 was 265 nM. `COC(=O)c1c(C)c(N2CCC(Oc3ccc(OC)nc3)CC2)nc2c1C(=O)NC2` [Example 190, methyl 2-(4-((6-methoxypyridin-3-yl)oxy)piperidin-1-yl)-3-methyl-5-oxo-6,7-dihydro-5H-pyrrolo[3,4-b]pyridine-4-carboxylate] gave an EC50 of 5610 nM. `Cc1cc2c(nc1N1CCC(OCc3cnn(C)c3)CC1)CNC2=O` [Example 190A, 3-methyl-2-(4-((1-methyl-1H-pyrazol-4-yl)methoxy)piperidin-1-yl)-6,7-dihydro-5H-pyrrolo[3,4-b]pyridin-5-one] gave an EC50 of 820 nM. `Cc1cc2c(nc1N1CCC(OCC3CCCCC3)CC1)CNC2=O` [Example 191, 2-(4-(cyclohexylmethoxy)piperidin-1-yl)-3-methyl-6,7-dihydro-5H-pyrrolo[3,4-b]pyridin-5-one] was tested, and the EC50 was 492 nM. With `Cc1cc2c(nc1N1CCC(OCC(C)C)CC1)CNC2=O` [Example 192, 2-(4-isobutoxypiperidin-1-yl)-3-methyl-6,7-dihydro-5H-pyrrolo[3,4-b]pyridin-5-one] the EC50 was 310 nM. With `COC1(COC2CCN(c3nc4c(cc3C)C(=O)NC4)CC2)CC1` [Example 193, 2-(4-((1-methoxycyclopropyl)methoxy)piperidin-1-yl)-3-methyl-6,7-dihydro-5H-pyrrolo[3,4-b]pyridin-5-one] the EC50 was 1220 nM. Compound `Cc1cc2c(nc1N1CCC(Oc3cnc4c(c3)CCCO4)CC1)CNC2=O` [Example 194, 2-(4-((3,4-dihydro-2H-pyrano[2,3-b]pyridin-6-yl)oxy)piperidin-1-yl)-3-methyl-6,7-dihydro-5H-pyrrolo[3,4-b]pyridin-5-one] has an EC50 of 532 nM.
